Consider two compounds from patent US20240009143A1, “EXTRACTION OF SHIKONIN FROM ARNEBIA DECUMBENS ROOTS AND USE OF SHIKONIN DERIVATIVES FOR TREATING ULCERS” (KUWAIT UNIVERSITY, priority 2022, published 2024).

The test relates to Heliobacter pylori. Kind of test: In vitro testing on H. pylori. The test is classed as cell-based. As to conditions: dose of 0.06 mg. The protocol:
The biological activity of the 4 shikonin derivatives were tested against 2 microorganisms Heliobacter pylori (H. pylori or HP) and Candida albicans (C. albicans).

For the compound `CC(C)=CC[C@@H](O)C1=CC(=O)c2c(O)ccc(O)c2C1=O` [compound E, shikonin], the “inhibition associated with H. pylori” value is given as 41.6%.

Take `CC(=O)O[C@H](CC=C(C)C)C1=CC(=O)c2c(O)ccc(O)c2C1=O` [compound D, acetylshikonin]: the “inhibition associated with H. pylori” value amounted to 41.6%.
